Where two headings read alike, the source gives them in different places.

In one assay the target is human TLR8 (Homo sapiens (Human), UniProt Q9NR97). Nature of the assay: TLR8 inhibition reporter assay (HEK-Blue SEAP).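 Further: SEAP driven by IFN-β minimal promoter carrying NF-κB and AP-1 sites, compounds dosed 0.05 nM to 50 µM for 22 h, inhibition scaled between agonist-plus-DMSO and reference-inhibitor wells.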
The next assay concerns the target human TLR7 (Homo sapiens (Human), UniProt Q9NYK1). Put plainly: TLR7 inhibition reporter assay (HEK-Blue SEAP). It is filed as cell-based. In general terms: Reporter assays use an easily measured gene product as a stand-in for the process of interest.
The next assay deals with human TLR9 (Homo sapiens (Human), UniProt Q9NR96). Nature of the assay: TLR9 inhibition reporter assay (HEK-Blue SEAP).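 Further: SEAP driven by an IFN-β minimal promoter with NF-κB and AP-1 sites, read after 22 h, compounds dosed 0.05 nM–50 µM, inhibition scaled between agonist plus DMSO and reference-inhibitor wells.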
Where [1] appears, read: read-out: TLR8 IC50, HEK-Blue cells overexpressing human TLR8, R848 15.9 μM stimulation, SEAP reporter.
[2] abbreviates: HEK-Blue cells overexpressing human TLR7, gardiquimod 7.5 μM stimulation, SEAP reporter.
The mark [3] stands for this setting: read-out: TLR9 IC50, HEK-Blue cells overexpressing human TLR9, ODN2006 5 nM stimulation, SEAP reporter.
The mark [4] stands for this setting: read-out: TLR8 IC50, HEK-Blue cells overexpressing human TLR8, SEAP reporter, R848 15.9 μM.
Where [5] appears, read: HEK-Blue cells overexpressing human TLR7, SEAP reporter, gardiquimod 7.5 μM.
Where [6] appears, read: read-out: TLR9 IC50, HEK-Blue cells overexpressing human TLR9, SEAP reporter, ODN2006 5 nM.
[7] abbreviates: read-out: TLR8 IC50, HEK-Blue human TLR8 cells, R848 15.9 μM.
Setting [8] is: HEK-Blue human TLR7 cells, gardiquimod 7.5 μM.
The mark [9] stands for this setting: read-out: TLR9 IC50, HEK-Blue human TLR9 cells, ODN2006 5 nM.

Chain of human TLR8 (Q9NR97 27-1041): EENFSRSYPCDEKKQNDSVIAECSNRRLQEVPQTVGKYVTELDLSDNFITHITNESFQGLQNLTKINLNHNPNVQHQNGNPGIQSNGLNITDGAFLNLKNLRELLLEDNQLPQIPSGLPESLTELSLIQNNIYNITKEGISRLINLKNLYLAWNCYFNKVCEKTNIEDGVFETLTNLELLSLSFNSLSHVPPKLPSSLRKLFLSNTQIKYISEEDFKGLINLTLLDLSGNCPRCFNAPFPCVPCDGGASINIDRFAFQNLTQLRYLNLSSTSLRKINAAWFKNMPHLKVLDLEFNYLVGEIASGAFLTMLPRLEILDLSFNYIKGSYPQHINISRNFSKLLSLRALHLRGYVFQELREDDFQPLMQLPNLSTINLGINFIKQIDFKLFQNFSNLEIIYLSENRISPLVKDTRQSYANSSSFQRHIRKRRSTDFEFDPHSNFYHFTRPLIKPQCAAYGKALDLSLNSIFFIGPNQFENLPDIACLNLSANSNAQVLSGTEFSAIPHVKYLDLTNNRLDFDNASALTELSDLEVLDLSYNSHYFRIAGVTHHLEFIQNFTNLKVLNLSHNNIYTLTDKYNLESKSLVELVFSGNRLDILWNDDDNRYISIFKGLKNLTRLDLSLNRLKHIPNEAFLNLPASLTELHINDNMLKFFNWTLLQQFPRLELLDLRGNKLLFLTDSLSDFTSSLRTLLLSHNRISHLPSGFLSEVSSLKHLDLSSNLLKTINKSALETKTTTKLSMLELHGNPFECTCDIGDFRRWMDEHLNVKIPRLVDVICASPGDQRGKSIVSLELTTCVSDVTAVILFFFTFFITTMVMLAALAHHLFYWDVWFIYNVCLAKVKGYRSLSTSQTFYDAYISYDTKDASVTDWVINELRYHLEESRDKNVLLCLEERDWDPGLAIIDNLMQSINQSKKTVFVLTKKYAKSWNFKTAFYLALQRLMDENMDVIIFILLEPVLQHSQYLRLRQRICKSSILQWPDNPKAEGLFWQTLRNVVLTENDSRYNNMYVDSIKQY
Chain of human TLR9 (Q9NR96 26-1032): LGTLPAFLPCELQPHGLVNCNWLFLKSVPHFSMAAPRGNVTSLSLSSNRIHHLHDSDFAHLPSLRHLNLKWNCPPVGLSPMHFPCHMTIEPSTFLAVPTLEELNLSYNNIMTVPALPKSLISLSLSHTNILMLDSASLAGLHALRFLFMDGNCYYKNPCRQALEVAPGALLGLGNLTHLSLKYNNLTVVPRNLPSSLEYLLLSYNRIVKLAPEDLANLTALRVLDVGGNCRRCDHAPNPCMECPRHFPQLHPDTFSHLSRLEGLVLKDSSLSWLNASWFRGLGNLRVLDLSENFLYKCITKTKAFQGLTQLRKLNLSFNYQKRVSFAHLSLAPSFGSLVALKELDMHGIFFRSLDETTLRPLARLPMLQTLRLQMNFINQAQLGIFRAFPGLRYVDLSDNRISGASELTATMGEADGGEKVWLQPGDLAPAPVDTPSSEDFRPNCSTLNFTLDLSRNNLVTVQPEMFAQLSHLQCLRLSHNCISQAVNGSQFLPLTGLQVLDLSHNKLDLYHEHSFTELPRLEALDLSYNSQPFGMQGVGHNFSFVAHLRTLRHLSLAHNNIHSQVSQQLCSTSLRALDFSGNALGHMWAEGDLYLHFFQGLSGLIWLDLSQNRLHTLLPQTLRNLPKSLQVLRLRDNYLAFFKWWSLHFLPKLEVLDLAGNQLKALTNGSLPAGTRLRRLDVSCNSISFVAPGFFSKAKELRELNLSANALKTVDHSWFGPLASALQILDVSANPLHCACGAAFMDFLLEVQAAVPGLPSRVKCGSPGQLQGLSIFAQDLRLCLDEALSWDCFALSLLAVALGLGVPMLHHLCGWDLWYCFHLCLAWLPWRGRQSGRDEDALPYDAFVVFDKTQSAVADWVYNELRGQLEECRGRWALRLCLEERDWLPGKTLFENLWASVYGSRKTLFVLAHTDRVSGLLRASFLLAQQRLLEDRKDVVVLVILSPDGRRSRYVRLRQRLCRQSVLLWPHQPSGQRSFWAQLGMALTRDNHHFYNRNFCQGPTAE
Chain of human TLR7 (Q9NYK1 27-1049): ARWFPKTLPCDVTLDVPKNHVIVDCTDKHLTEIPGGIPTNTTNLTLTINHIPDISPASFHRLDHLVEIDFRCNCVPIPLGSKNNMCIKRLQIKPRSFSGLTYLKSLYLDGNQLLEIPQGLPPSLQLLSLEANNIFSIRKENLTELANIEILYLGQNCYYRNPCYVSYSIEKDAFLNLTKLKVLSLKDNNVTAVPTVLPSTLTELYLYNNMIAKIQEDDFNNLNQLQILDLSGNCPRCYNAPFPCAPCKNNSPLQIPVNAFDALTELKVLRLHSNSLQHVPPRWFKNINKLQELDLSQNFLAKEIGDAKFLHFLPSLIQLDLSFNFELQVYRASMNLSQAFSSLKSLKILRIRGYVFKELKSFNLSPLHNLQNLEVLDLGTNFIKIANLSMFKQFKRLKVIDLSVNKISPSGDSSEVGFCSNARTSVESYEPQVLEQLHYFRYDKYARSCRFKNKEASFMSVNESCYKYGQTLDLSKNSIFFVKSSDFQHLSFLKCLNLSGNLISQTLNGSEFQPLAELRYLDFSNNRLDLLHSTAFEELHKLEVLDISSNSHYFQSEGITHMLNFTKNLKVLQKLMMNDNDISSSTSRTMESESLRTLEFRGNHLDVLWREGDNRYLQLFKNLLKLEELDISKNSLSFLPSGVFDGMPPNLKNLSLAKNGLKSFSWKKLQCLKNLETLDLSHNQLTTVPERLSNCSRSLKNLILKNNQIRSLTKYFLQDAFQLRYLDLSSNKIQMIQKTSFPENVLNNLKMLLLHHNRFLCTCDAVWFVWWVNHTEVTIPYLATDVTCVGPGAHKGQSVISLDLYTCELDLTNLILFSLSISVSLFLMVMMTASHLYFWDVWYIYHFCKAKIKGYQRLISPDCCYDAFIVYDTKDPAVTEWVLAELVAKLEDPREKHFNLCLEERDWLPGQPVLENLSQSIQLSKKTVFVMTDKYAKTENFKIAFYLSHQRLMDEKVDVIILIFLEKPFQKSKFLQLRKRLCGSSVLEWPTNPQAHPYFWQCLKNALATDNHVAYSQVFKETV
Description for human TLR7: HEK-Blue™-cells (Invivogen) overexpressing human TLR7, TLR8 or TLR9 receptors were used for screening inhibitors of these receptors using an inducible SEAP (secreted embryonic alkaline phosphatase) reporter gene under the control of the IFN-β minimal promoter fused to five NF-κB and AP-1-binding sites. Briefly, cells are seeded into Greiner 384 well plates (15000 cells per well for TLR7, 20,000 for TLR8 and 25,000 for TLR9) and then treated with test compounds in DMSO to yield a final dose response concentration range of 0.05 nM-50 μM. After a 30 minute compound pre-treatment at room temperature, the cells are then stimulated with a TLR7 ligand (gardiquimod at a final concentration of 7.5 μM), TLR8 ligand (R848 at a final concentration of 15.9 μM) or TLR9 ligand (ODN2006 at a final concentration of 5 nM) to activate NF-κB and AP-1 which induce the production of SEAP. After a 22 hour incubation at 37° C., 5% CO2, SEAP levels are determined with the addition of HEK-Blue™ Detection reagent (Invivogen), a cell culture medium that allows for detection of SEAP, according to manufacturer's specifications.

With `COCc1cc(-c2[nH]c3ccc(C4CCC(NCC(=O)N(C)C)CC4)nc3c2C(C)C)cn2ncnc12` (stereo not drawn) [Example 230], the IC50 (as a rule, the concentration that gives 50% inhibition) turned out to be 33 nM at human TLR8 (setting [1]), 38 nM on human TLR7 (setting [2]) and 2460 nM on human TLR9 (setting [3]).
Consider `Cc1cc(-c2[nH]c3ccc(C4CCN(C5COC5)CC4)nc3c2C(C)C)cn2ncnc12` [Example 534], for which the IC50 came out at 8 nM at human TLR8 (setting [4]), 1.2 nM against human TLR7 (setting [5]) and 4280 nM at human TLR9 (setting [6]).
On the same counts, the results for `Cc1c(-c2[nH]c3ccc(C4CCN(CC(=O)N(C)C)CC4)nc3c2C(C)C)cn2ncnc2c1C` [Example 540] are 1.4 nM, 1.1 nM and 1950 nM.
`Cc1c(-c2[nH]c3ccc(C4CCC(N5CCS(=O)(=O)CC5)CC4)nc3c2C(C)C)cn2ncnc2c1C` (stereo not drawn) [Example 382]: the IC50 at human TLR8 (setting [1]) is 22 nM; against human TLR7 (setting [2]) it was 7.8 nM; on human TLR9 (setting [3]), over 50000 nM.
Consider `Cc1c(-c2[nH]c3ccc(N4CCN(C(=O)CN5CC6(COC6)C5)[C@@H](C)C4)nc3c2C(C)C)cn2ncnc2c1C` [Example 900], for which the IC50 at human TLR8 (setting [7]) was found to be 1.4 nM; at human TLR7 (setting [8]) it was 1.1 nM; at human TLR9 (setting [9]) it was 15600 nM.
Take `COc1cc(-c2[nH]c3ccc(N4CC(NC(=O)CN(C)C)C4)nc3c2C(C)C)cn2ncnc12` [Example 17]: the figures for the IC50 at human TLR8 (setting [1]), against human TLR7 (setting [2]) and at human TLR9 (setting [3]) were 7.7 nM, 3.7 nM and 1100 nM, respectively.
Regarding `Cc1c(-c2[nH]c3ccc(N4CCN(CCS(C)(=O)=O)C[C@@H]4C)nc3c2C(C)C)cn2ncnc2c1C` [Example 817], the IC50 on human TLR8 (setting [7]) was 2.9 nM; on human TLR7 (setting [8]) it was 2.1 nM; at human TLR9 (setting [9]), over 50000 nM.
In the case of `Cc1c(-c2[nH]c3ccc(C4CCC(NCCC#N)CC4)nc3c2C(C)C)cn2ncnc2c1C` (stereo not drawn) [Example 432], the IC50 came to 0.55 nM at human TLR8 (setting [4]), 0.37 nM on human TLR7 (setting [5]) and 584 nM at human TLR9 (setting [6]).
In the case of `Cc1c(-c2[nH]c3ccc(N4C[C@H](C)N[C@@H](C)C4)nc3c2C(C)C)cn2ncnc2c1C` [Example 757], the figures for the IC50 at human TLR8 (setting [4]), on human TLR7 (setting [5]) and at human TLR9 (setting [6]) were 1.9 nM, 0.7 nM and 5220 nM, respectively.
On the same counts, the results for `Cc1c(-c2[nH]c3ccc(C4CCC(NCCS(C)(=O)=O)CC4)nc3c2C(C)C)cn2ncnc2c1C` (stereo not drawn) [Example 452] are 4.4 nM, 2.7 nM and 3090 nM.
On the same counts, the results for `Cc1c(-c2[nH]c3ccc(N4CC5(CNC5)C4)nc3c2C(C)C)cn2ncnc2c1C` [Example 740, 6-(3-isopropyl-5-(2,6-diazaspiro[3.3]heptan-2-yl)-1H-pyrrolo[3,2-b]pyridin-2-yl)-7,8-dimethyl-[1,2,4]triazolo[1,5-a]pyridine] are 5.1 nM, 2.2 nM and 623 nM.
Take `CCN(C)C1CCC(c2ccc3[nH]c(-c4cn5ncnc5c(C)c4C)c(C(C)C)c3n2)CC1` (stereo not drawn) [Example 388]: the figures for the IC50 on human TLR8 (setting [1]), against human TLR7 (setting [2]) and at human TLR9 (setting [3]) were 2.2 nM, 0.87 nM and 891 nM, respectively.
`COc1cc(-c2[nH]c3ccc(C4CCC(N)C4)nc3c2C(C)C)cn2ncnc12` (single isomer, unassigned) [Example 8, 3-(3-isopropyl-2-(8-methoxy-[1,2,4]triazolo[1,5-a]pyridin-6-yl)-1H-pyrrolo[3,2-b]pyridin-5-yl)cyclopentan-1-amine]: the IC50 at human TLR8 (TLR8 IC50, HEK-Blue cells overexpressing human TLR8, R848 15.9 μM stimulation, SEAP reporter) came to 21 nM; against human TLR7 (setting [2]), 4.7 nM; against human TLR9 (TLR9 IC50, HEK-Blue cells overexpressing human TLR9, ODN2006 5 nM stimulation, SEAP reporter), 8550 nM.
For `Cc1c(-c2[nH]c3ccc(N4CCN(C(=O)CNC5CC5)CC4)nc3c2C(C)C)cn2ncnc2c1C` [Example 968], the half-inhibitory concentration (IC50) on human TLR8 (setting [7]) came out at 0.69 nM; against human TLR7 (setting [8]), 1.9 nM; at human TLR9 (setting [9]), 16400 nM.
As for `Cc1c(-c2[nH]c3ccc(C4CCN(C(=O)CN(C)C)CC4)nc3c2C(C)C)cn2ncnc2c1C` [Example 551], the IC50 at human TLR8 (setting [4]) was found to be 5.5 nM; at human TLR7 (setting [5]), 0.94 nM; at human TLR9 (setting [6]), 582 nM.
`COc1cc(-c2[nH]c3cc(C)c(C4CCC(N(C)C5COC5)CC4)nc3c2C(C)C)cn2ncnc12` (stereo not drawn) [Example 331]: the IC50 was found to be 34 nM at human TLR8 (setting [1]), 1.7 nM at human TLR7 (setting [2]) and 1910 nM at human TLR9 (setting [3]).
On the same counts, the results for `Cc1c(-c2[nH]c3ccc(N4CCN(CCN5CCOCC5)C(=O)C4)nc3c2C(C)C)cn2ncnc2c1C` [Example 155] are 56 nM, 401 nM and over 50000 nM.
For the compound `COCCNC1CN(c2ccc3[nH]c(-c4cn5ncnc5c(C)c4C)c(C(C)C)c3n2)C1` [Example 1000], the figures for the IC50 at human TLR8 (setting [7]), on human TLR7 (setting [8]) and at human TLR9 (setting [9]) were 3.2 nM, 18 nM and 6440 nM, respectively.
Consider `COc1cc(-c2[nH]c3ccc(N4CCN(CC(C)(C)O)CC4)nc3c2C(C)C)cn2ncnc12` [Example 106], for which the IC50 was 0.28 nM on human TLR8 (setting [1]), 2.2 nM at human TLR7 (setting [2]) and 7780 nM on human TLR9 (setting [3]).
For `COc1cc(-c2[nH]c3ccc(C4CCC(NC5COC5)CC4)nc3c2C(C)C)cn2ncnc12` (stereo not drawn) [Example 186] the same measures were 9.3 nM, 2.2 nM and 1010 nM.
On the same counts, the results for `COc1cc(-c2[nH]c3ccc(N4CC(N(C)C)C4)nc3c2C(C)C)cn2ncnc12` [Example 13] are 1.9 nM, 3.2 nM and 5020 nM.
`CCCCN(CC)CC(=O)N1CCN(c2ccc3[nH]c(-c4cn5ncnc5c(C)c4C)c(C(C)C)c3n2)CC1` [Example 876]: the IC50 at human TLR8 (setting [7]) worked out at 517 nM; on human TLR7 (setting [8]), 644 nM; on human TLR9 (setting [9]), 13300 nM.
On the same counts, the results for `Cc1c(-c2[nH]c3ccc(N4C[C@H](C)N(C(=O)CN(C)C)C[C@H]4C)nc3c2C(C)C)cn2ncnc2c1C` [Example 839] are 3.2 nM, 0.37 nM and 7870 nM.
Consider `COc1cc(-c2[nH]c3ccc(N4CC(NC5CCOCC5)C4)nc3c2C(C)C)cn2ncnc12` [Example 29], for which the IC50 amounted to 2.7 nM on human TLR8 (setting [1]), 4.6 nM against human TLR7 (setting [2]) and 2830 nM at human TLR9 (setting [3]).
In the case of `Cc1c(-c2[nH]c3ccc(N4CC5(C4)CN(C4COC4)C5)nc3c2C(C)C)cn2ncnc2c1C` [Example 1011], the IC50 at human TLR8 (setting [7]) came out at 22 nM; against human TLR7 (setting [8]), 11 nM; on human TLR9 (setting [9]), 23700 nM.
On to `CC(=O)N(C)C1CCC(c2ccc3[nH]c(-c4cn5ncnc5c(C)c4C)c(C(C)C)c3n2)CC1` (stereo not drawn) [Example 439], for which the half-maximal inhibitory concentration (IC50) was 32 nM on human TLR8 (setting [4]), 3.5 nM against human TLR7 (setting [5]) and 24200 nM on human TLR9 (setting [6]).
With `Cc1c(-c2[nH]c3ccc(N4CCN(C(=O)C5CN(C)C5)C[C@@H]4C)nc3c2C(C)C)cn2ncnc2c1C` [Example 829], the IC50 worked out at 12 nM at human TLR8 (setting [7]), 3.7 nM against human TLR7 (setting [8]) and 17300 nM at human TLR9 (setting [9]).
`COC(=O)N1CCN(C2CN(c3ccc4[nH]c(-c5cn6ncnc6c(C)c5C)c(C(C)C)c4n3)C2)CC1` [Example 42]: the IC50 was 57 nM on human TLR8 (setting [1]), 178 nM on human TLR7 (setting [2]) and over 50000 nM on human TLR9 (setting [3]).
On to `Cc1c(-c2[nH]c3ccc(N4CCN(C5CCS(=O)(=O)CC5)C[C@@H]4C)nc3c2C(C)C)cn2ncnc2c1C` [Example 815], for which the half-maximal inhibitory concentration (IC50) on human TLR8 (setting [7]) was 1.4 nM; on human TLR7 (setting [8]) it was 1.8 nM; on human TLR9 (setting [9]) it was over 50000 nM.
As for `Cc1c(-c2[nH]c3ccc(N4CCC(N(C)C5COC5)CC4)nc3c2C(C)C)cn2ncnc2c1C` [Example 65], the IC50 at human TLR8 (setting [1]) turned out to be 1.3 nM; on human TLR7 (setting [2]), 1.9 nM; at human TLR9 (setting [3]), 25100 nM.
On the same counts, the results for `COc1cc(-c2[nH]c3ccc(N4CC(NCC(=O)N(C)C)C4)nc3c2C(C)C)cn2ncnc12` [Example 18] are 14 nM, 14 nM and 1490 nM.
For `CC(C)c1c(-c2cn(CCS(C)(=O)=O)c3ncccc23)[nH]c2ccc(C3CCC(NC4CCCOC4)CC3)nc12` (stereo not drawn) [Example 271] the same measures were 40 nM, 120 nM and 228 nM.
`Cc1cc(-c2[nH]c3cc(F)c(C4CCN(CCS(C)(=O)=O)CC4)nc3c2C(C)C)cn2ncnc12` [Example 582]: the figures for the IC50 on human TLR8 (setting [4]), against human TLR7 (setting [5]) and on human TLR9 (setting [6]) were 12 nM, 0.99 nM and 7460 nM, respectively.
Regarding `COCCNCC(=O)N1CCN(c2ccc3[nH]c(-c4cn5ncnc5c(C)c4C)c(C(C)C)c3n2)CC1` [Example 159], the IC50 was 1 nM at human TLR8 (setting [1]), 2.4 nM on human TLR7 (setting [2]) and 7740 nM at human TLR9 (setting [3]).
On the same counts, the results for `Cc1c(-c2[nH]c3ccc(N4CCC(N(C)Cc5ncnn5C)CC4)nc3c2C(C)C)cn2ncnc2c1C` [Example 63] are 4 nM, 7.4 nM and 42400 nM.
Take `CC(C)c1c(-c2cn(C)c3ncncc23)[nH]c2ccc(N3CCN(C(=O)CCN(C)C)CC3)nc12` [Example 124]: the IC50 on human TLR8 (setting [1]) was found to be 4.7 nM; against human TLR7 (setting [2]), 1.2 nM; at human TLR9 (setting [3]) it was 5790 nM.
Take `CC(C)c1c(-c2cn(CC#N)c3ncccc23)[nH]c2ccc(C3CCC(NCCS(C)(=O)=O)CC3)nc12` (stereo not drawn) [Example 275]: the IC50 at human TLR8 (setting [1]) was determined as 8.5 nM; against human TLR7 (setting [2]), 14 nM; on human TLR9 (setting [3]), 684 nM.
For `COc1cc(-c2[nH]c3ccc(N4CC(NCC5(C)COC5)C4)nc3c2C(C)C)cn2ncnc12` [Example 30] the same measures were 43 nM, 70 nM and 22600 nM.

The values are drawn from patent US10544143B2, “4-azaindole compounds” (BRISTOL-MYERS SQUIBB COMPANY, priority 2017, dated 2020).
